Laboratory results: EPA's ToxValDB 9.5

System: Mus musculus
[1] = developmental, duration: 5 days, oral, F, Developmental: Delay in vaginal opening at 5 mg/kg and mammary gland growth stimulation a 5 mg/kg and inhibition at 10 mg/kg
[2] = developmental, duration: 7 days, oral, F, Kunming, Developmental: Increased resorbed embryos at 10 mg/kg/day in GD 13 group
[3] = developmental, duration: 17 days, oral, F, C57BL/6, Developmental: Developmental delays in the mammary glands on PNDs 21 (38%) and 61 (25%)
[4] = developmental, duration: 17 days, oral, F, CD1, Developmental: Increased ambulatory activity and decreased methamphetamineinduced activity
[5] = developmental, duration: 17 days, oral, F, Developmental: Decrease in number of successful births
[6] = developmental, duration: 17 days, oral, F, Hepatic: Centrilobular hepatocyte hypertrophy and bile duct hyperplasia at 3 mg/kg/day
[7] = reproduction developmental, duration: 17 days, oral, F, CD1, Hepatic: Increase in severity of chronic inflammation at ?1 mg/kg/day / Ito cell hypertrophy and centrilobular hepatocellular hypertrophy …
[8] = short-term, duration: 4 days, dermal, F, BALB/c, Hepatic: 52% increase in absolute liver weight
[9] = short-term, duration: 4 days, dermal, F, BALB/c, Immunotoxicological: Increased serum IgE following ovalbumin challenge
[10] = short-term, duration: 5 days, oral, F, BALB/c, Body Weight: 13% decrease in body weight gain
[11] = short-term, duration: 5 days, oral, F, Body Weight: 10% decrease in body weight gain
[12] = short-term, duration: 10 days, oral, F, Immunotoxicological: Altered response to sRBC

## O=C(O)C(F)(F)C(F)(F)C(F)(F)C(F)(F)C(F)(F)C(F)(F)C(F)(F)F [Perfluorooctanoic acid]
developmental, duration: 5 days, oral, F, BALB/c, Developmental: Delay in vaginal opening at 1 mg/kg and mammary gland growth inhibition at 5 and 10 mg/kg
  LOAEL: 1 mg/kg-day
[1]
  LOAEL: 5 mg/kg-day
  NOAEL: 1 mg/kg-day
developmental, duration: 5 days, oral, F, Developmental: Mammary gland growth stimulation
  LOAEL: 5 mg/kg-day
[2]
  LOAEL: 10 mg/kg-day
  NOAEL: 5 mg/kg-day
developmental, duration: 15 days, oral, F, C57BL/6, Developmental: Increased horizontal and ambulatory locomotor activity and decreased resting time in males / decrease in novel object …
  LOAEL: 0.1 mg/kg-day
[3]
  LOAEL: 0.3 mg/kg-day
  NOAEL: 0.1 mg/kg-day
developmental, duration: 17 days, oral, F, CD1, Developmental: Developmental delays in mammary gland development
  LOAEL: 0.01 mg/kg-day
developmental, duration: 17 days, oral, F, CD1, Developmental: Developmental delays in the mammary glands on PNDs 35 (26%) and 56 (30%)
  LOAEL: 0.01 mg/kg-day
developmental, duration: 17 days, oral, F, CD1, Developmental: Impaired development of mammary glands in offspring
  LOAEL: 0.3 mg/kg-day
[4]
  LOAEL: 1 mg/kg-day
  NOAEL: 0.3 mg/kg-day
developmental, duration: 17 days, oral, F, Developmental: 31.5% reduced pups per litter on PND 20
  LOAEL: 3 mg/kg-day
[5]
  LOAEL: 3 mg/kg-day
  NOAEL: 0.1 mg/kg-day
developmental, duration: 17 days, oral, F, Hepatic: 28% increased liver weight, hepatocellular hypertrophy with increased peroxisomes
  NOAEL: 3 mg/kg-day
[6]
  LOAEL: 3 mg/kg-day
  NOAEL: 1 mg/kg-day
developmental, duration: 18 days, oral, F, ICR, Developmental: 14% increased neonatal mortality, 9.5% reduced fetal body weight
  LOAEL: 5 mg/kg-day
developmental, duration: 18 days, oral, F, ICR, Developmental: 14% increased neonatal mortality, 9.5% reduced fetal body weight + Hepatic: 35% increased maternal relative liver weight with…
  NOAEL: 1 mg/kg-day
developmental, duration: 20 days, oral, diet, M/F, C57BL/6, developmental
  LOAEL: 8.29 mg/L
developmental, duration: 21 days, oral, F, C57BL/6, Developmental: Altered femur and tibial bone morphology, decreased tibial mineral density
  LOAEL: 0.3 mg/kg-day
developmental, duration: 21 days, oral, M/F, Developmental: Altered exploratory behavior in adult offspring (increased in males and decreased in females) / increased global activity in…
  LOAEL: 0.3 mg/kg-day
Reproduction developmental, duration: 7 days, oral, F, Kunming, Reproductive: Decreases in progesterone levels at ?5 mg/kg in GD 13 group / increased serum estradiol level at 10 mg/kg/day on GD 7 / …
  LOAEL: 2.5 mg/kg-day
[7]
  LOAEL: 1 mg/kg-day
  NOAEL: 0.3 mg/kg-day
Reproduction developmental, duration: 17 days, oral, F, Hepatic: Increased severity of centrilobular hepatocyte hypertrophy at ?0.3 mg/kg/day
  NOAEL: 1 mg/kg-day
Reproduction developmental, duration: 17 days, oral, M/F, CD1, Hepatic: Increased severity of hepatocellular hypertrophy at PND 91 and periportal inflammation on PND 21 at ?0.01 mg/kg/day (incidence was …
  LOAEL: 0.01 mg/kg-day
Reproduction developmental, duration: 18 days, oral, F, ICR, Hepatic: 35% increased maternal relative liver weight with hepatocellular hypertrophy at ?1 mg/kg/day / single cell necrosis and mild …
  LOAEL: 10 mg/kg-day
short-term, duration: 3 weeks, oral, M, Hepatic: Hepatocellular hypertrophy and degeneration
  LOAEL: 5 mg/kg-day
short-term, duration: 4 days, dermal, F, BALB/c
  NOAEL: 50 mg/kg-day
[8]
  LOAEL: 6.25 mg/kg-day
  NOAEL: 2.5 mg/kg-day
[9]
  LOAEL: 18.8 mg/kg-day
  NOAEL: 12.5 mg/kg-day
[10]
  LOAEL: 10 mg/kg-day
  NOAEL: 5 mg/kg-day
short-term, duration: 5 days, oral, F, BALB/c, Hepatic: Increases in liver weight and hepatocellular hypertrophy at ?1 mg/kg
  NOAEL: 10 mg/kg-day
[11]
  LOAEL: 10 mg/kg-day
  NOAEL: 5 mg/kg-day
short-term, duration: 5 days, oral, F, C57BL/6, Reproductive: Increased progesterone levels
  LOAEL: 5 mg/kg-day
short-term, duration: 5 days, oral, F, Hepatic: Increases in liver weight and hepatocellular hypertrophy at ?1 mg/kg
  NOAEL: 10 mg/kg-day
short-term, duration: 7 days, oral, F, BALB/c, Body Weight: 36% decrease in body weight gain + Immunotoxicological: Inhibition of T-and B-lymphocyte proliferation in response to sRBC / …
  LOAEL: 20 mg/kg-day
short-term, duration: 7 days, oral, F, BALB/c, Hepatic: 32% increase in relative liver weight
  NOAEL: 20 mg/kg-day
short-term, duration: 7 days, oral, M, Body Weight: 14% decreased mean body weight + Immunotoxicological: 40% reduction in spleen weight and 79% reduction in thymus weight
  LOAEL: 33 mg/kg-day
short-term, duration: 7 days, oral, M, Body Weight: >10% reduced final body weight
  LOAEL: 24 mg/kg-day
short-term, duration: 7 days, oral, M, Hepatic: 2-fold increase in absolute liver weight
  NOAEL: 24 mg/kg-day
short-term, duration: 7 days, oral, M, Hepatic: 86% increase in absolute liver weight
  NOAEL: 33 mg/kg-day
short-term, duration: 7 days, oral, M, Hepatic: Hepatocellular hypertrophy, steatosis, and increased hepatic triglyceride levels
  NOAEL: 10 mg/kg-day
short-term, duration: 7 days, oral, M, Immunotoxicological: Decreased humoral response to immunization with horse red blood cells
  LOAEL: 24 mg/kg-day
[12]
  LOAEL: 15 mg/kg-day
  NOAEL: 7.5 mg/kg-day
short-term, duration: 10 days, oral, M, Body Weight: 17% decrease in final body weight
  LOAEL: 30 mg/kg-day
short-term, duration: 10 days, oral, M, Body Weight: 25% body weight loss after 5 days of treatment
  LOAEL: 78 mg/kg-day
short-term, duration: 10 days, oral, M, Body Weight: 25% body weight loss after 10 days of treatment
  LOAEL: 78 mg/kg-day
short-term, duration: 10 days, oral, M, C57BL/6, Hepatic: 68% increase in liver weight, hepatocellular hypertrophy, and decreased serum cholesterol levels
  NOAEL: 2 mg/kg-day
short-term, duration: 10 days, oral, M, Hepatic: 35% increase in absolute liver weight at ?1 mg/kg/day
  NOAEL: 1 mg/kg-day
short-term, duration: 10 days, oral, M, Hepatic: 74% increase in absolute liver weight at ?78 mg/kg/day
  NOAEL: 390 mg/kg-day
short-term, duration: 10 days, oral, M, Hepatic: 74% increase in absolute liver weight in 5 days at ?78 mg/kg/day
  NOAEL: 390 mg/kg-day
short-term, duration: 10 days, oral, M, Hepatic: >90% increase in absolute and relative liver weight
  NOAEL: 30 mg/kg-day
short-term, duration: 10 days, oral, M, Immunotoxicological: 40-50% decrease in spleen and thymus weights
  LOAEL: 11.5 mg/kg-day
short-term, duration: 10 days, oral, M, Immunotoxicological: 86% reduction in absolute thymus weight / 30% reduction in absolute spleen weight
  LOAEL: 30 mg/kg-day
short-term, duration: 15 days, oral, F
  NOAEL: 7.5 mg/kg-day
short-term, duration: 15 days, oral, F, Body Weight: 14-20% decrease in body weight in wild-type mice
  LOAEL: 30 mg/kg-day
short-term, duration: 21 days, oral, M, ICR, Immunotoxicological: Marked hyperplasia in spleen white pulp and thymic atrophy
  LOAEL: 47.2 mg/kg-day
subchronic, duration: 6 weeks, oral, M/F, BALB/c, Hepatic: 54-65% increase in relative liver weight / 20% increase in plasma cholesterol in males
  NOAEL: 0.55 mg/kg-day
subchronic, duration: 6 weeks, oral, M/F, C57BL/6, Hepatic: 66-67% increase in relative liver weight in males / increased plasma cholesterol levels in males (35%) and females (70%)
  NOAEL: 0.55 mg/kg-day
